Laboratory results published in patent US9732065B2, “Cyclic aminomethyl pyrimidine derivative” (Sumitomo Dainippon Pharma Co., Ltd., priority 2013, dated 2017).

System: not listed separately
Assay: Brain penetration study in rat
Format: in vivo
Details: brain and plasma, unbound brain-to-plasma drug concentration ratio
Protocol: In this study, the brain penetration of the present compound can be evaluated. Specifically, a 7-week-old SD-type or WKY-type rat received the subcutaneous administration of a solution of the present compound in saline or the oral administration of a suspension of the present compound in methylcellulose. Plasma and brain were collected from the treated rat 0.5 hour, 1 hour or 2 hours after the administration, and then the levels of the present compound in the plasma and the brain were measured by a LC-MS method.
The protein binding ratios of the present compound to the plasma and the brain were measured by an equilibrium dialysis method.
The levels of the present compound in the plasma and the brain as well as the plasma and brain protein binding ratios are applied to the following formula, and thus Kp,uu,brain (Unbound brain-to-plasma drug concentration ratio) can be calculated. Kp,uu,brain=(level of the present compound in the brain×(100−brain protein binding ratio (%))/100)/(level of the present compound in the plasma×(100−plasma protein binding ratio (%))/100)

SMILES	Kp uu
Nc1ncc(CN2CCC(c3ccccn3)CC2)cn1 [Example 36]	2.28

Target: T1, Human dopamine D4 receptor (Homo sapiens, UniProt P21917)
T1 sequence (P21917 1-419): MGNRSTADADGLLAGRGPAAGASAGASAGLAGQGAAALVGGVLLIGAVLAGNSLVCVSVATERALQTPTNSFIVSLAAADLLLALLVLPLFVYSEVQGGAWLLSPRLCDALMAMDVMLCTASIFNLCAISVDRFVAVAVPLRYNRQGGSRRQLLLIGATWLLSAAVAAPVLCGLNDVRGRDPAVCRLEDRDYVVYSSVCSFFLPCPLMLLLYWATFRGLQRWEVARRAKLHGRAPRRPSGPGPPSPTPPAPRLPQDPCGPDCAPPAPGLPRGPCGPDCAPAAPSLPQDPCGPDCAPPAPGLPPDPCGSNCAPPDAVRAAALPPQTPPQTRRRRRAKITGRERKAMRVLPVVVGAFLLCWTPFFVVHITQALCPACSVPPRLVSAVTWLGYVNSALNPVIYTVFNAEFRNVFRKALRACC
Assay: Agonistic/antagonistic activity in G protein dependent pathway (aequorin intracellular calcium luminescence), D4
Format: cell-based
Design: expressed in transfected cells; host or cells: CHO-K1 or HEK293 cells
Details: read-out: Maximal activity on each receptor (%): D4
Protocol: Plasmids encoding each receptor, aequorin and Gα16 were prepared, and the plasmids were transfected into CHO cells (Chinese Hamster Ovary cells) or HEK293 cells (Human Embryonic Kidney 293 cells) to prepare expressing cell lines.
The agonistic or antagonistic activity of the present compound in the G protein dependent pathway was evaluated on the basis of intracellular calcium levels as follows. CHO-K1 or HEK293 cell lines transfected with D2, D4, α1A, or α2A receptor genes were seeded in a 384-well plate, and incubated in a CO2 incubator at 37° C. for 24 hours, and then a solution of the present compound in DMSO was added into cells preloaded with coelenterazine to measure the change in luminescent signals with a FDSS (Hamamatsu Photonics K.K.). […] The agonistic activity of the present compound was calculated according to the measured luminescent signals, as the maximal activity (Emax) of the present compound. On the other hand, the antagonistic activity of the present compound was calculated according to the luminescent signals in wells with 10 μM of an endogenous ligand alone defined as 100%, as the inhibitory activity of the present compound to an endogenous ligand. EC50 value was calculated as the concentration of the present compound required to achieve a 50% response, and IC50 was calculated as the concentration of the present compound required to achieve a 50% inhibition of the Emax of an endogenous ligand.

SMILES	Emax at 1 µM
Cc1ncc(CN2CC=C(c3ccccn3)CC2)c(N)n1 [Example 1, 5-(3′,6′-Dihydro-2,4′-bipyridin-1′(2′H)-ylmethyl)-2-methylpyrimidin-4-amine]	62%
Cc1ncc(CN2CC=C(c3ncccc3F)CC2)c(N)n1 [Example 3, 5-(3-Fluoro-3′,6′-dihydro-2,4′-bipyridin-1′(2′H)-ylmethyl)-2-methylpyrimidin-4-amine]	69%
Cc1ncc(CN2CC=C(c3cncc(F)c3)CC2)c(N)n1 [Example 4, 5-(5-Fluoro-3′,6′-dihydro-3,4′-bipyridin-1′(2′H)-ylmethyl)-2-methylpyrimidin-4-amine]	65%
Cc1ncc(CN2CCC(c3cccnc3)CC2)c(N)n1 [Example 6, 2-Methyl-5-[4-(pyridin-3-yl)piperidin-1-ylmethyl]pyrimidin-4-amine]	63%
Cc1ncc(CN2CCC(c3cncc(F)c3)CC2)c(N)n1 [Example 7, 5-[4-(5-Fluoropyridin-3-yl)piperidin-1-ylmethyl]-2-methylpyrimidin-4-amine]	64%
Cc1ncc(CN2CCC(c3nccc4ccccc34)CC2)c(N)n1 [Example 8]	62%
Cc1ncc(CN2CCC(c3cc4ccccc4cn3)CC2)c(N)n1 [Example 9, 5-[4-(Isoquinolin-3-yl)piperidin-1-ylmethyl]-2-methylpyrimidin-4-amine]	70%
CCc1ncc(CN2CC=C(c3ccccn3)CC2)c(N)n1 [Example 10, 5-(3′,6′-Dihydro-2,4′-bipyridin-1′(2′H)-ylmethyl)-2-ethylpyrimidin-4-amine]	110%
CCc1ncc(CN2CC=C(c3cccnc3)CC2)c(N)n1 [Example 11]	93%
CCc1ncc(CN2CCC(c3ccccn3)CC2)c(N)n1 [Example 12]	101%
CCc1ncc(CN2CCC(c3cccnc3)CC2)c(N)n1 [Example 13]	81%
CC(C)c1ncc(CN2CC=C(c3ccccn3)CC2)c(N)n1 [Example 14]	87%
CC(C)c1ncc(CN2CC=C(c3cccnc3)CC2)c(N)n1 [Example 15]	131%
CC(C)c1ncc(CN2CCC(c3cccnc3)CC2)c(N)n1 [Example 16]	78%
Nc1nc(C2CC2)ncc1CN1CC=C(c2ccccn2)CC1 [Example 17]	72%
Nc1nc(C2CC2)ncc1CN1CC=C(c2cccnc2)CC1 [Example 18]	58%
Nc1nc(C2CC2)ncc1CN1CCC(c2ccccn2)CC1 [Example 19]	64%
Nc1nc(C2CC2)ncc1CN1CCC(c2cccnc2)CC1 [Example 20]	54%
Nc1nc(C2CCCC2)ncc1CN1CC=C(c2ccccn2)CC1 [Example 21]	93%
Nc1nc(C2CCCC2)ncc1CN1CC=C(c2cccnc2)CC1 [Example 22]	72%
Nc1nc(C2CCCC2)ncc1CN1CCC(c2ccccn2)CC1 [Example 23]	105%
Nc1nc(C2CCCC2)ncc1CN1CCC(c2cccnc2)CC1 [Example 24]	103%
CNc1nc(C)ncc1CN1CC=C(c2ccccn2)CC1 [Example 25]	71%
CNc1nc(C)ncc1CN1CC=C(c2cccnc2)CC1 [Example 26]	75%
CNc1nc(C)ncc1CN1CCC(c2ccccn2)CC1 [Example 27]	66%

SMILES	Emax at 1 µM
CNc1nc(C)ncc1CN1CCC(c2cccnc2)CC1 [Example 28]	62%
Cc1ncc(CN2CC=C(c3ccccn3)CC2)cn1 [Example 29, 1′-[(2-Methylpyrimidin-5-yl)methyl]-1′,2′,3′,6′-tetrahydro-2,4′-bipyridine]	107%
Cc1ncc(CN2CC=C(c3cccnc3)CC2)cn1 [Example 30]	86%
Cc1ncc(CN2CCC(c3ccccn3)CC2)cn1 [Example 31]	82%
Cc1ncc(CN2CCC(c3cccnc3)CC2)cn1 [Example 32]	68%
Nc1ncc(CN2CC=C(c3ccccn3)CC2)cn1 [Example 34, 5-(3′,6′-Dihydro-2,4′-bipyridin-1′(2′H)-ylmethyl)pyrimidin-2-amine]	93%
Nc1ncc(CN2CC=C(c3cccnc3)CC2)cn1 [Example 35]	86%
Nc1ncc(CN2CCC(c3ccccn3)CC2)cn1 [Example 36]	82%
Cc1ncc(CN2CCC(c3ccccn3)CC2C)c(N)n1 (stereo not shown) [Example 38, 2-Methyl-5-[2-methyl-4-(pyridin-2-yl)piperidin-1-ylmethyl]pyrimidin-4-amine]	51%
Cc1ncc(CN2CCC(c3cccnc3)CC2C)c(N)n1 (stereo not shown) [Example 39, 2-Methyl-5-[2-methyl-4-(pyridin-3-yl)piperidin-1-ylmethyl]pyrimidin-4-amine]	49%
Cc1ncc(CN2CCC(c3ccccn3)C(C)C2)c(N)n1 (stereo not shown) [Example 40, 2-Methyl-5-[3-methyl-4-(pyridin-2-yl)piperidin-1-ylmethyl]pyrimidin-4-amine]	72%
Cc1ncc(CN2CCC(c3cccnc3)C(C)C2)c(N)n1 (stereo not shown) [Example 41, 2-Methyl-5-[3-methyl-4-(pyridin-3-yl)piperidin-1-ylmethyl]pyrimidin-4-amine]	59%
Cc1ncc(CN2CCCC(c3ccccn3)CC2)c(N)n1 (stereo not shown) [Example 42, 2-Methyl-5-[4-(pyridin-2-yl)azepan-1-ylmethyl]pyrimidin-4-amine]	71%
Cc1ncc(CN2CCCC(c3cccnc3)CC2)c(N)n1 (stereo not shown) [Example 43, 2-Methyl-5-[4-(pyridin-3-yl)azepan-1-ylmethyl]pyrimidin-4-amine]	92%
Cc1ncc(CN2CCC(c3nccs3)CC2)c(N)n1 [Example 47, 2-Methyl-5-[4-(1,3-thiazol-2-yl)piperidin-1-ylmethyl]pyrimidin-4-amine]	51%
Cc1ncc(CN2CCC(c3cncc(F)c3)CC2)c(C)n1 [Example 48, 5-[4-(5-Fluoropyridin-3-yl)piperidin-1-ylmethyl]-2,4-dimethylpyrimidine]	62%
Cc1ncc(CN2CC=C(c3cccnc3)CC2)c(C)n1 [Example 49]	66%
Cc1ncc(CN2CC=C(c3ccccn3)CC2)c(C)n1 [Example 50]	70%
Cc1ccnc(C2=CCN(Cc3cnc(C)nc3N)CC2)c1 [Example 51]	88%
Cc1cccc(C2=CCN(Cc3cnc(C)nc3N)CC2)n1 [Example 52]	67%
Cc1cncc(C2CCN(Cc3cnc(C)nc3N)CC2)c1 [Example 53]	66%
Cc1cncc(C2=CCN(Cc3cnc(C)nc3N)CC2)c1 [Example 54]	60%
Cc1ncc(CN2CC=C(c3cc(Cl)ccn3)CC2)c(N)n1 [Example 55]	88%
Cc1ncc(CN2CC=C(c3cccc(Cl)n3)CC2)c(N)n1 [Example 56]	40%
Cc1ccnc(C2CCN(Cc3cnc(C)nc3N)CC2)c1 [Example 57, 2-Methyl-5-[4-(4-methylpyridin-2-yl)piperidin-1-ylmethyl]pyrimidin-4-amine]	62%

System: not listed separately
Assay: PK study in rat (bioavailability)
Format: in vivo
Details: plasma, oral vs intravenous administration
Protocol: In this study, the pharmacokinetics of the present compound can be evaluated. Specifically, a 7-week-old SD-type or WKY-type rat received the intravenous administration of a solution of the present compound in saline or the oral administration of a suspension of the present compound in carboxymethylcellulose or methylcellulose. Blood was collected from the rat at each time below.
Intravenous administration: 5 minutes, 15 minutes, 30 minutes, 1 hour, 2 hours, 4 hours, 6 hours, and 24 hours after administration
Oral administration: 15 minutes, 30 minutes, 1 hour, 2 hours, 4 hours, 6 hours, and 24 hours after administration
Plasma was collected from the blood, the levels of the present compound in the plasma were measured by a LC-MS method, and then the pharmacokinetic parameters were calculated on the basis of the level changes.

SMILES	bioavailability
Nc1ncc(CN2CCC(c3ccccn3)CC2)cn1 [Example 36]	67.2%
